Results taken from patent US12054497B2, “Substituted heterocyclic fused cyclic compound, preparation method therefor and pharmaceutical use thereof” (GENFLEET THERAPEUTICS (SHANGHAI) INC., priority 2019, dated 2024).
pIC50: −log10 of the molar value. Like-named read-outs stand apart in the source and are kept apart here.

Key:
[1] = system: MIA PaCa-2 cells with Kras G12C mutation; test: Cell proliferation inhibition experiment, 3D spheroid, CellTiter-Glo (Test Example 3); format: cell-based, human; settings: 5 days, read-out: MIA-PaCa2 IC50
Method in brief: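 MIA PaCa-2 spheroids (200 cells/well) were formed overnight, then exposed for 5 days to compounds in 3.16-fold dilutions at 0.1% DMSO. Viability was read by CellTiter-Glo luminescence, and inhibition was normalised to DMSO control and medium blank. IC50 came from a four-parameter fit.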

KRas G12C = KRas G12C (Homo sapiens (Human), UniProt P01116, G12C); test: Nucleotide exchange assay (NEA)-HTRF, SOS1 catalyzed displacement of GDP by GTP (Test Example 4); format: biochemical
Sequence of KRas G12C (P01116-2 other isoform, or with tags, fused parts or gaps G12C): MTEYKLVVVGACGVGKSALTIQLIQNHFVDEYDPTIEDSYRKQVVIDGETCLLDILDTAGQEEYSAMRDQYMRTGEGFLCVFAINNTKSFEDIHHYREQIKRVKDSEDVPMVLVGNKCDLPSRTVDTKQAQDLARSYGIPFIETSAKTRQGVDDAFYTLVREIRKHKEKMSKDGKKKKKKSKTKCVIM
Method in brief: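 His-tagged KRas G12C preloaded with DY647-GDP (40 nM working solution, with anti-His Tb) was preincubated 15 min with compound at 20 °C. SOS1/GTP (0.2 μM/200 μM working solution) was then added for 2 h in the dark. The HTRF 665/615 nm ratio gave inhibition relative to no-compound control and SOS1/GTP-free T0, with a four-parameter IC50 fit.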

[2] = system: subcutaneous xenograft tumor model of MIA PaCa-2; test: In vivo pharmacodynamic experiment, tumor growth inhibition (Test Example 5); design: species or system BALB/c nude mice; settings: p.o., QD; for TGI: day 14
Experimental: Experimental objective: to evaluate the in vivo pharmaceutical effects of tested compounds on the subcutaneous xenograft tumor model of MIA PaCa-2.
Experimental operation: 6 to 8 weeks old female BALB/c nude mice each having the body weight of 18-20 g were chosen. MIA PaCa-2 cells were cultured in DMEM containing 10% FBS, 2.5% HS and 1% penicillin-streptomycin at 37° C. in an incubator with 5% CO2. Cells were collected. The MIA PaCa-2 cells were subcutaneously inoculated to the animals at their backs on the right, 2.0×10^6 cells (0.1 mL) for each animal. When tumor grew to 190-311 mm^3, mice with tumor having a suitable size were chosen and treated in groups, with administration dosages shown in Table 5 below. The animals were weighed on an electronic balance each day. The tumor volume was investigated by using a vernier caliper twice a week. The tumor volume was calculated by the following equation: V=0.5 a×b^2, a and b representing the long diameter and the short diameter of the tumor, respectively. The tumor volume was used to calculate a tumor growth inhibition rate (TGI), and the TGI shown in the form of a percentage was used to indicate the antineoplastic activity of a compound. The TGI was calculated by the following equation: TGI (%)=[1−avTi−0/avCi−0)]×100, with avTi−0 representing the average tumor volume of the group administrated with the compound on a specific day minus the average tumor volume of this group on the day of grouping, and avCi−0 representing the average tumor volume of the solvent control group on a specific day minus the average tumor volume of the solvent control group on the day of grouping. The tumor volume was shown in the form of an average value±standard error of mean (SEM).

[3] = Homo sapiens, MIA PaCa-2, 120 h

| SMILES | pIC50 [1, 3] | pIC50 (KRas G12C) | pIC50 ([1]; Homo sapiens, 120 h) | Tumor Volume on Day 14 after Administration ([2]; 1 mg/kg) [mm^3] | TGI ([2]; 1 mg/kg) [%] | Tumor Volume on Day 14 after Administration ([2]; 3 mg/kg) [mm^3] | TGI ([2]; 3 mg/kg) [%] | Tumor Volume on Day 14 after Administration ([2]; 10 mg/kg) [mm^3] | TGI ([2]; 10 mg/kg) [%] | pIC50 [1] |
| --- | --- | --- | --- | --- | --- | --- | --- | --- | --- | --- |
| C=CC(=O)N1CCN2c3c(c(=O)n(-c4c(C)ccnc4C(C)C)c4nc(-c5c(O)cccc5F)c(F)cc34)OC[C@H]2C1 [Compound Z1, (4aR)-3-acryloyl-11-fluoro-10-(2-fluoro-6-hydroxyphenyl)-8-(2-isopropyl-4-methylpyridin-3-yl)-1,2,3,4,4a,5-hexahydropyrazino[1′,2′:4,5][1,4]oxazino[2,3-c][1,8]naphthyridin-7(8H)-one] | 7.05 | 6.59 |  |  |  |  |  |  |  |  |
| C=CC(=O)N1C[C@@H]2C(=O)N(C)c3c(c4cc(F)c(-c5c(O)cccc5F)nc4n(-c4c(C)ccnc4C(C)C)c3=O)N2C[C@H]1C (single isomer, unassigned) [Compound Z10-2] | 8.10 | 7.43 |  |  |  |  |  |  |  |  |
| C=CC(=O)N1CCN2c3c(c(=O)n(-c4c(C)ccnc4C(C)C)c4nc(-c5c(O)cccc5F)c(Cl)cc34)N(C)C(=O)[C@H]2C1 (single isomer, unassigned) [Compound Z25-2] |  | 7.60 | 8.30 | 180.14 | 116.2 | 62.35 | 143.7 | 18.94 | 154.4 |  |
| C=CC(=O)N1CCN2c3c(c(=O)n(-c4c(C(C)C)ncnc4C(C)C)c4nc(-c5c(O)cccc5F)c(Cl)cc34)N(C)C(=O)[C@H]2C1 [Compound Z48] | 8.22 |  |  | 459.33 | 51.2 | 148.62 | 124.7 | 90.39 | 138.5 |  |
| C=CC(=O)N1CCN2c3c(c(=O)n(-c4c(C)ccnc4C(C)C)c4nc(-c5c(O)cccc5F)c(F)cc34)N(C)C(=O)[C@H]2C1 (single isomer, unassigned) [Compound Z9-2] | 7.77 | 6.94 |  |  |  |  |  |  |  |  |
| C=CC(=O)N1CCN2c3c(c(=O)n(-c4c(C(C)C)ncnc4C(C)C)c4c(F)c(-c5c(O)cccc5F)c(Cl)cc34)NC(=O)[C@H]2C1 (single isomer, unassigned) [Compound Z37-1] | 8.70 | 7.96 |  | 286.12 | 89.4 | 238.82 | 102.8 | 210.59 | 108.4 |  |
| C=CC(=O)N1C[C@@H]2C(=O)N(C)c3c(c4cc(Cl)c(-c5c(O)cccc5F)nc4n(-c4c(C)ccnc4C(C)C)c3=O)N2C[C@H]1C (single isomer, unassigned) [Compound Z27-2] | 9.00 | 8.05 |  | 140.10 | 126.3 | 54.81 | 145.1 | 15.16 | 155.8 |  |
| [2H]C([2H])([2H])N1C(=O)[C@H]2CN(C(=O)C=C)CCN2c2c1c(=O)n(-c1c(C)ccnc1C(C)C)c1nc(-c3c(O)cccc3F)c(Cl)cc21 (single isomer, unassigned) [Compound Z26-2] |  | 7.40 |  | 157.06 | 121.1 | 67.66 | 143.8 | 30.49 | 151.1 | 8.30 |
